In PMC3421038 (The Pediatric infectious disease journal, 2012):
Read-outs that look alike come from different tables or passages of the source.

Experiments:
[1] = human, in vivo; cited from earlier work
[2] = human, in vivo, cited from earlier work
[3] = in vivo, cited from earlier work
[4] = test system: hepatic cytochrome P450 enzyme system; settings: cited from earlier work
[5] = in vivo
[6] = human, in vivo, iv, 6 mg/kg

Structure (SMILES): CCCCCCCCCC(=O)N[C@@H](Cc1c[nH]c2ccccc12)C(=O)N[C@H](CC(N)=O)C(=O)N[C@@H](CC(=O)O)C(=O)N[C@@H]1C(=O)NCC(=O)N[C@@H](CCCN)C(=O)N[C@@H](CC(=O)O)C(=O)N[C@H](C)C(=O)N[C@@H](CC(=O)O)C(=O)NCC(=O)N[C@H](CO)C(=O)N[C@@H]([C@H](C)CC(=O)O)C(=O)N[C@@H](CC(=O)c2ccccc2N)C(=O)O[C@@H]1C [daptomycin]
- patients with cellulitis as serious adverse event [1]: 1.3%
- patients with elevation of CPK concentrations [1]: 2.1%
- renal toxicity [1]: does not cause renal toxicity
- mean exposure (AUCinf) ([2]; 8 mg/kg): 429 µg·h/mL
- mean exposure (AUCinf) ([2]; 10 mg/kg): 550 µg·h/mL
- mean exposure (AUCinf) ([3]; 4 mg/kg): 417 µg·h/mL
- administered dose excreted within 24 hours as intact drug [3]: 50%
- kinetics (dose linearity) [3]: linear kinetics
- effect on the hepatic cytochrome P450 enzyme system [4]: does not have an effect
- CPK value after the dose of daptomycin [5]: 86 IU/L
- CPK value before the dose of daptomycin [5]: 132 IU/L
- calcium level after the daptomycin dose [5]: 9.7
- calcium level before the daptomycin dose [5]: 9.3
- respiratory rate, temperature, heart rate, or mean blood pressure during the daptomycin infusion ([5]; 6 mg/kg): No significant changes
- adverse events classified as serious adverse events ([5]; iv, 6 mg/kg): Five
- adverse events related to study drug ([5]; iv, 6 mg/kg): None
- adverse events reported (number of events) ([5]; iv, 6 mg/kg): 34
- subjects with adverse events ([5]; iv, 6 mg/kg): 55%
- AUC(0-t) [6]: 262 µg·h/mL
- Cmax [6]: 25500 ng/mL
- clearance [6]: 0.35 mL/min/kg
- half-life [6]: 6.2 h
